{"source": "paper PMC3241878", "about": "(ACS chemical biology, 2011)", "biological_target": "Siderocalin (Scn; a.k.a. Lcn2, Ngal, 24p3) (Homo sapiens, UniProt P80188)", "sequence (P80188 21-198)": "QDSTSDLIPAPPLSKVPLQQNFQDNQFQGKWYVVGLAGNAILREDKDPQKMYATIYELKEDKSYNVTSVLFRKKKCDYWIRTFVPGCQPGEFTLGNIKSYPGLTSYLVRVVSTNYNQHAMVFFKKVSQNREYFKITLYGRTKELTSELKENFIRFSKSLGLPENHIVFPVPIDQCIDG", "experiment": "intrinsic fluorescence quenching titration", "assay_type": "binding", "settings": "pH 7.4, TBS, 5% DMSO, 32 μg/mL ubiquitin, 100 nM protein; ferric complex", "note": "pKd: −log10 of the molar value.", "data": [{"substance": "Fe^IIICMB-7 [n = 7]", "values": [{"measurement": "Kd (μM)", "result": "0.128 ± 1.0×10^−3 μM"}]}, {"substance": "Fe^IIICMB-6 [n = 6]", "values": [{"measurement": "Kd (μM)", "result": "0.654 ± 2.2×10^−2 μM"}]}, {"substance": "Fe^IIICMB-5 [n = 5]", "values": [{"measurement": "Kd (μM)", "result": "1.10 ± 2.6×10^−2 μM"}]}, {"substance": "Fe^IIICMB (n = 4)", "values": [{"measurement": "Kd (μM)", "result": "2.36 ± 9.0×10^−3 μM"}]}, {"substance": "Fe^IIICMB (n = 3)", "values": [{"measurement": "pKd", "result": "< 5.05"}]}]}
